# Values of other authors as cited in article PMC3470887, “Protegrin-1 Inhibits Dengue NS2B-NS3 Serine Protease and Viral Replication in MK2 Cells” (Journal of Biomedicine and Biotechnology, 2012).
# Settings: mouse, iv; cited from earlier work
structure (smiles),measurement,value
CC(C)C[C@H](NC(=O)[C@H](CCCNC(=N)N)NC(=O)CNC(=O)CNC(=O)[C@@H](N)CCCNC(=N)N)C(=O)N[C@H]1CSSC[C@@H](C(=O)N[C@H](C(=O)NCC(=O)N[C@@H](CCCNC(=N)N)C(N)=O)C(C)C)NC(=O)[C@H](C(C)C)NC(=O)[C@@H]2CSSC[C@H](NC(=O)[C@H](Cc3ccc(O)cc3)NC1=O)C(=O)N[C@@H](CCCNC(=N)N)C(=O)N[C@@H](CCCNC(=N)N)C(=O)N[C@@H](CCCNC(=N)N)C(=O)N[C@@H](Cc1ccccc1)C(=O)N2 [PG-1],dose with low in vivo toxicity,up to 8 mg/kg
